Experimental data taken from patent US8883723B2, “Conjugate of insulin and vitamin B12 for oral delivery” (Syracuse University, priority 2007, dated 2014).
Read-outs that look alike come from different tables or passages of the source.

Tests used:
[1] = system: humans; settings: cited from earlier work
[2] = native insulin, Tietze et al. 1953; cited from earlier work
[3] = oral-enteric route; cited from earlier work
[4] = humans; cited from earlier work
[5] = system: Intrinsic Factor; test: Spectrophotometric Intrinsic Factor in vitro binding studies; settings: 50 mM HEPES
Protocol: Intrinsic Factor binding studies. Intrinsic Factor (10 mg, […]) was dissolved in 1 mL dH2O. A 50 μL aliquot of B12-insulin was added to 950 μL of 50 mM HEPES buffer. Baseline was run against HEPES buffer and the first scan of B12-insulin was taken without Intrinsic Factor. A 5 μL aliquot of Intrinsic Factor was added to the B12-insulin, mixed and a second scan was taken. This procedure was repeated for five additions of Intrinsic Factor.

[6] = Melting circular dichroism studies (222 nm); format: physicochemical; settings: 50 mM HEPES
Protocol: Melting circular dichroism (CD) studies. Circular dichroism (CD) was performed on an Aviv model 202 spectrometer set at 222 nm with a 1 mL Quartz cuvette. All samples were prepared in 50 mM HEPES buffer (pH 9.7) with 25 mM carbonate and 10 mM EDTA and heated from 25 to 80° C. in 1° increments then cooled from 80 to 25° C. in the same increment. Sample concentrations ranged from 1.00 μM to 1.35 μM. […] All results were duplicated per batch and run for every batch prior to in vivo testing.

[7] = system: STZ-induced diabetic rat model; test: Blood glucose response after oral gavage in the STZ-induced diabetic rat model; format: in vivo, Sprague Dawley rats; settings: STZ-induced diabetic rats
Text: To examine the in vivo efficacy of the B12-insulin conjugate, blood from the STZ-induced diabetic rat model was sampled by means of a jugular catheter prior to and subsequent to oral administration of the B12-insulin conjugate and compared to the blood glucose response following administration of an equimolar solution of free insulin (FIG. 8A and B).
Animals. Male Sprague Dawley rats (323±36; ±SD; n=12) were purchased pre-catheterised (Jugular vein) from Charles River Laboratories (Wilmington, Mass.), acclimatised for three days and then rendered insulin-deficient via infusion of streptozotocin (STZ; 60 mg/kg body weight) dissolved in citrate buffer and used within 15 min of preparation. Blood glucose concentration was assessed over four days to ensure fasting levels of greater than 14 mmol/L (>250 mg/dl) were reached. Animals were housed individually and maintained on a 12-hr light-dark (0600-1800 h) cycle with free access to food (standard laboratory chow; Scotts' Distributing, Inc) and water. Maintenance of animals and experimental protocols were conducted in accordance with federal regulations and approved by the Syracuse University Institutional Animal Care and Use Committee (Protocol Number SU 09-102)
Animal experimental design. On the day of experimentation, animals were fasted for 4 hours prior to the sampling of blood (50 μl) and the B12-insulin compound (100 nm/ml) was subsequently administered via oral gavage (1 ml). Blood was then sampled at 30-, 60-, 90-, 120-, 150-, 180-, 210-, 240-, 270- and 300-min after the administration of the conjugate for the calculation of area under the blood glucose curve (YSI 2300 STAT PLUS, YSI Incorporated, Yellow Springs, Ohio). Two control groups were used in this set of experiments; the first received a molar-equivalent concentration (100 nm) of free insulin (1 ml) while the second control group received the same quantity of the B12-insulin conjugate as the experimental group, however the conjugate was dissolved in 10^5-fold excess B12.

[8] = system: obese subjects; settings: cited from earlier work
[9] = system: humans; settings: cited from earlier work; for decrease in caloric intake: total dose 2 nmol/m^2 body-surface area, 90-min infusion
[10] = in vivo; cited from earlier work

Q: For “GLP-1(7-36)amide: Glucagon-like peptide-1 (7-36) amide, endogenous incretin peptide”, which “average acute reduction of food intake” value ([1]; infusion, meta-analysis) is on record?
A: Its value is 11.7%.

Q: And the weight loss ([1]; prandial subcutaneous injections for 5 days, obese but otherwise healthy subjects)?
A: The weight loss was 0.55 kg.

Q: For insulin, which half-life [2] is on record?
A: Its half-life is 10 min.

Q: And the bioavailability [3]?
A: Its bioavailability is “about 5%”.

Q: With Cyanocobalamin [B12] as the compound, how does the uptake capacity [4] read?
A: Its uptake capacity is 1-2 μg per dosage.

Q: Which “binding to Intrinsic Factor” value [5] does the source give for “B12-insulin conjugate: Bovine insulin conjugated using CDI at B strand lysine29 to the 5′-hydroxyl group of B12; carbamate linked conjugate” here?
A: The value was “recognizing the B12-insulin conjugate”.

Q: And the “binding to Intrinsic Factor” value ([5]; listed as insulin-B12 conjugate)?
A: Its value is “successful binding”.

Q: And the “melting temperature (circular dichroism)” value [6]?
A: The value was ~65 °C.

Q: What about the “melting temperature (circular dichroism)” value ([6]; listed as B12-insulin) of the same compound?
A: The value was 55 °C.

Q: What about the “reduction of blood glucose levels compared with free insulin” value ([7]; oral administration) of the same compound?
A: Its value is “more effective than free insulin”.

Q: And the “time of nadir in the blood glucose response” value ([7]; oral administration)?
A: Its value is 4 h.

Q: And the “greater decrease in the area under the blood glucose curve compared to free insulin” value ([7]; oral gavage 1 ml of 100 nm/ml, 300 min, vs equimolar free insulin, p=0.056)?
A: The value was 4.7 fold.

Q: For CC(C)CC(N(C)C)C1(c2ccc(Cl)cc2)CCC1 (stereo not drawn) [sibutramine], which mean weight loss [8] is on record?
A: The mean weight loss was 10%.

Q: And the “reduction of acute caloric intake” value [8]?
A: Its value is 16%.

Q: Which “reduction in calorie intake” value ([9]; lean humans, i.v. infusion 0.8 pmol/kg/min, free-choice buffet meal 2 hours after end of infusion) does the source give for “PYY3-36: truncated form of Peptide YY, endogenous appetite suppressing peptide” here?
A: The value was “approximately 36%”.

Q: And the “decrease in caloric intake” value ([9]; lean subjects)?
A: Its value is 31%.

Q: And the “decrease in caloric intake” value ([9]; obese subjects)?
A: Its value is 30%.

Q: What about the “time for plasma level to return to baseline after end of infusion” value [10] of the same compound?
A: Its value is ≤ 30 min.
